“And” between values parts separate entries of the source, which are not always exact repeats. Identical values can stand only once. Toxic doses and inconclusive results are not listed.

This assay relates to CD2F1 mice, L1210 leukemia ip, survival T/C. Description: NCI In Vivo Anticancer Drug Screen. Data for tumor model L1210 Leukemia (intraperitoneal) in CD2F1 (CDF1) mice. Conditions: higher = longer survival. The procedure, abridged: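 Mice carrying a transplanted tumor received test compound or vehicle alone. The value is the measurement in the treated group divided by that in the vehicle-treated control group.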

Setting [1] is: endpoint: mean survival time, dose: 100.0 mg/kg/injection, schedule: Q04DX003 (ip), vehicle: saline.
The mark [2] stands for this setting: endpoint: mean survival time, dose: 200.0 mg/kg/injection, schedule: Q04DX003 (ip), vehicle: saline.
[3] abbreviates: endpoint: mean survival time, dose: 100.0 mg/kg/injection, schedule: Q01DX009 (ip), vehicle: saline with Tween-80.
Setting [4] is: endpoint: mean survival time, dose: 100.0 mg/kg/injection, schedule: Q04DX003 (ip), vehicle: saline with Tween-80.
[5] abbreviates: endpoint: mean survival time, dose: 200.0 mg/kg/injection, schedule: Q04DX003 (ip), vehicle: saline with Tween-80.
The mark [6] stands for this setting: endpoint: mean survival time, dose: 400.0 mg/kg/injection, schedule: Q04DX003 (ip), vehicle: saline with Tween-80.
The mark [7] stands for this setting: endpoint: mean survival time, dose: 50.0 mg/kg/injection, schedule: Q01DX009 (ip), vehicle: saline with Tween-80.
Where [8] appears, read: endpoint: mean survival time, dose: 200.0 mg/kg/injection, schedule: Q01DX009 (ip), vehicle: saline with Tween-80.
Where [9] appears, read: endpoint: mean survival time, dose: 400.0 mg/kg/injection, schedule: Q01DX009 (ip), vehicle: saline with Tween-80.

Regarding `CCCCCCCCCCCCOCC[N+](CCO)(CCO)Cc1ccccc1`, the T/C is 91 % of control (endpoint: mean survival time, dose: 0.25 mg/kg/injection, schedule: Q01DX009 (ip), vehicle: saline); 107 % of control (endpoint: mean survival time, dose: 0.5 mg/kg/injection, schedule: Q01DX009 (ip), vehicle: saline); 90 % of control (endpoint: mean survival time, dose: 1.0 mg/kg/injection, schedule: Q01DX009 (ip), vehicle: saline); 102 % of control (endpoint: mean survival time, dose: 5.0 mg/kg/injection, schedule: Q04DX003 (ip), vehicle: saline); 101 % of control (endpoint: mean survival time, dose: 10.0 mg/kg/injection, schedule: Q04DX003 (ip), vehicle: saline); 93 % of control (endpoint: mean survival time, dose: 20.0 mg/kg/injection, schedule: Q04DX003 (ip), vehicle: saline).

Consider `CN(CCC#N)CCC#N`, for which the T/C under setting [1] is 101 % of control; the T/C under setting [2] is 96 % of control; the T/C (endpoint: mean survival time, dose: 400.0 mg/kg/injection, schedule: Q04DX003 (ip), vehicle: saline) was 101 % of control.

On to `O=S(=O)(O)c1ccccc1.O=S(=O)(O)c1ccccc1.[NH-]C1CCCCC1[NH-].[Pt+2]`, for which the T/C was 220 % of control (endpoint: mean survival time, dose: 1.0 mg/kg/injection, schedule: Q01DX009 (ip), vehicle: dextrose); 170 % of control (endpoint: mean survival time, dose: 1.0 mg/kg/injection, schedule: Q04DX003 (ip), vehicle: other); 218 % of control (endpoint: mean survival time, dose: 2.0 mg/kg/injection, schedule: Q04DX003 (ip), vehicle: other); 155 % of control (endpoint: mean survival time, dose: 4.0 mg/kg/injection, schedule: Q01DX001 (ip), vehicle: dextrose); 221 % of control (endpoint: mean survival time, dose: 4.0 mg/kg/injection, schedule: Q04DX003 (ip), vehicle: dextrose); 200 % of control (endpoint: mean survival time, dose: 6.0 mg/kg/injection, schedule: Q04DX003 (ip), vehicle: dextrose). In addition, the T/C by setting is: (endpoint: mean survival time, dose: 6.0 mg/kg/injection, schedule: Q04DX003 (ip), vehicle: other) 119 % of control; (endpoint: mean survival time, dose: 8.0 mg/kg/injection, schedule: Q01DX001 (ip), vehicle: dextrose) 155 % of control; (endpoint: mean survival time, dose: 8.0 mg/kg/injection, schedule: Q04DX003 (ip), vehicle: dextrose) 191 % of control; (endpoint: mean survival time, dose: 12.0 mg/kg/injection, schedule: Q01DX001 (ip), vehicle: dextrose) 196 % of control; (endpoint: mean survival time, dose: 16.0 mg/kg/injection, schedule: Q01DX001 (ip), vehicle: dextrose) 152 % of control and 303 % of control; (endpoint: mean survival time, dose: 24.0 mg/kg/injection, schedule: Q01DX001 (ip), vehicle: dextrose) 262 % of control.

Regarding `CC(=O)Nc1cccc(/C=C/c2cccc([N+](=O)[O-])c2)c1`, the T/C reads like this: (endpoint: mean survival time, dose: 100.0 mg/kg/injection, schedule: Q01DX001 (ip), vehicle: Klucel (hydroxypropylcellulose) (HPC)) 103 % of control; (endpoint: mean survival time, dose: 200.0 mg/kg/injection, schedule: Q01DX001 (ip), vehicle: Klucel (hydroxypropylcellulose) (HPC)) 93 % of control; (endpoint: mean survival time, dose: 400.0 mg/kg/injection, schedule: Q01DX001 (ip), vehicle: Klucel (hydroxypropylcellulose) (HPC)) 100 % of control.

In the case of `O=C(/C=C1\C(=O)Nc2ccccc21)/C=C1/C(=O)Nc2ccccc21`, the T/C was 97 % of control (endpoint: mean survival time, dose: 25.0 mg/kg/injection, schedule: Q01DX009 (ip), vehicle: Klucel (hydroxypropylcellulose) (HPC)); 104 % of control (endpoint: mean survival time, dose: 50.0 mg/kg/injection, schedule: Q01DX009 (ip), vehicle: Klucel (hydroxypropylcellulose) (HPC)); 95 % of control (endpoint: mean survival time, dose: 100.0 mg/kg/injection, schedule: Q01DX009 (ip), vehicle: Klucel (hydroxypropylcellulose) (HPC)).

For `Clc1ncc2cnccn12`, the T/C under setting [3] was 101 % of control.

As for `Cc1c(C)c2ccccc2[nH]c1=O`, the T/C is, setting by setting: under setting [4], 99 % of control; under setting [5], 96 % of control; under setting [6], 100 % of control.

Consider `Cc1ccc(S(=O)(=O)OC2C(O)OC3COC(c4ccccc4)OC3C2OS(=O)(=O)c2ccc(C)cc2)cc1` (configuration not stated), for which the T/C reads like this: (endpoint: mean survival time, dose: 100.0 mg/kg/injection, schedule: Q01DX001 (ip), vehicle: saline with Tween-80) 94 % of control; (endpoint: mean survival time, dose: 200.0 mg/kg/injection, schedule: Q01DX001 (ip), vehicle: saline with Tween-80) 105 % of control; (endpoint: mean survival time, dose: 400.0 mg/kg/injection, schedule: Q01DX001 (ip), vehicle: saline with Tween-80) 94 % of control.

`Cc1cc(Cc2cc(C)c(O)c(C)c2)cc(C)c1O`: the T/C under setting [7] was 94 % of control, the T/C under setting [3] was 100 % of control and the T/C under setting [8] was 97 % of control.

Take `C=CCOCC1CO1` (configuration not stated): the T/C is, setting by setting: (endpoint: mean survival time, dose: 12.5 mg/kg/injection, schedule: Q01DX009 (ip), vehicle: saline) 102 % of control and 103 % of control; (endpoint: mean survival time, dose: 25.0 mg/kg/injection, schedule: Q01DX009 (ip), vehicle: saline) 102 % of control and 111 % of control; under setting [7], 100 % of control; (endpoint: mean survival time, dose: 50.0 mg/kg/injection, schedule: Q01DX009 (ip), vehicle: saline) 98 % of control and 108 % of control; under setting [3], 97 % of control; (endpoint: mean survival time, dose: 100.0 mg/kg/injection, schedule: Q01DX009 (ip), vehicle: saline) 94 % of control and 104 % of control. For the same compound, the T/C runs as follows: under setting [8], 103 % of control; (endpoint: mean survival time, dose: 200.0 mg/kg/injection, schedule: Q01DX009 (ip), vehicle: saline) 114 % of control and 105 % of control; under setting [9], 105 % of control.

For `CCOC(=O)/C=C(\C)Sc1ccc(Cl)cc1`, the T/C by setting is: (endpoint: mean survival time, dose: 100.0 mg/kg/injection, schedule: Q04DX003 (ip), vehicle: alcohol) 92 % of control; (endpoint: mean survival time, dose: 200.0 mg/kg/injection, schedule: Q04DX003 (ip), vehicle: alcohol) 87 % of control; (endpoint: mean survival time, dose: 400.0 mg/kg/injection, schedule: Q04DX003 (ip), vehicle: alcohol) 102 % of control.

Consider `O=C1C=CC(=O)C2C3C=CC(C/C=C\C3)C12` (configuration not stated), for which the T/C (endpoint: mean survival time, dose: 12.5 mg/kg/injection, schedule: Q04DX002 (ip), vehicle: saline with Tween-80) is 105 % of control; the T/C (endpoint: mean survival time, dose: 25.0 mg/kg/injection, schedule: Q04DX002 (ip), vehicle: saline with Tween-80) was 94 % of control; the T/C (endpoint: mean survival time, dose: 50.0 mg/kg/injection, schedule: Q04DX002 (ip), vehicle: saline with Tween-80) was 94 % of control.

For `CCCCCCNC(=O)Nc1ccc(Cl)c(Cl)c1`, the T/C by setting is: under setting [5], 92 % of control; under setting [6], 93 % of control.

As for `COc1ccc(CCNC(=O)Cc2cc(OC)c(OC)cc2[N+](=O)[O-])cc1OC`, the T/C (endpoint: mean survival time, dose: 100.0 mg/kg/injection, schedule: Q01DX001 (ip), vehicle: saline) was 94 % of control; the T/C (endpoint: mean survival time, dose: 200.0 mg/kg/injection, schedule: Q01DX001 (ip), vehicle: saline) is 97 % of control; the T/C (endpoint: mean survival time, dose: 400.0 mg/kg/injection, schedule: Q01DX001 (ip), vehicle: saline) was 94 % of control.

As to `CC(N)C(=O)c1ccccc1` (configuration not stated), the T/C runs as follows: under setting [1], 105 % of control; under setting [2], 94 % of control.

For `C1CCC(NC2CCCCC2)CC1`, the T/C reads like this: (endpoint: mean survival time, dose: 25.0 mg/kg/injection, schedule: Q01DX001 (ip), vehicle: saline with Tween-80) 104 % of control; (endpoint: mean survival time, dose: 50.0 mg/kg/injection, schedule: Q01DX001 (ip), vehicle: saline with Tween-80) 101 % of control; (endpoint: median survival time, dose: 25.0 mg/kg/injection, schedule: Q01DX009 (ip), vehicle: saline) 94 % of control; (endpoint: median survival time, dose: 50.0 mg/kg/injection, schedule: Q01DX009 (ip), vehicle: saline) 100 % of control; (endpoint: median survival time, dose: 100.0 mg/kg/injection, schedule: Q01DX009 (ip), vehicle: saline) 94 % of control; (endpoint: median survival time, dose: 200.0 mg/kg/injection, schedule: Q01DX009 (ip), vehicle: saline) 97 % of control. The T/C (endpoint: median survival time, dose: 400.0 mg/kg/injection, schedule: Q01DX009 (ip), vehicle: saline) is 100 % of control.

Take `O=C(Nc1ccc2c3c(ccc(NC(=O)c4ccccc4)c13)C=C2)c1ccccc1`: the T/C runs as follows: under setting [3], 95 % of control; under setting [9], 89 % of control.

Turning to `OC1CCCC2CCCCC12` (configuration not stated), the T/C is, setting by setting: under setting [4], 100 % of control; under setting [5], 109 % of control; under setting [6], 94 % of control.

Regarding `Cc1cc(C)c(O)c(C(=O)CC2CC(=O)NC(=O)C2)c1`, the T/C under setting [3] was 100 % of control; the T/C under setting [4] was 95 % of control; the T/C under setting [8] was 105 % of control; the T/C under setting [5] was 97 % of control; the T/C under setting [9] is 101 % of control; the T/C under setting [6] is 95 % of control.
